Experimental data: ChEMBL document CHEMBL1137456, “The synthesis and biological activity of pentafluorosulfanyl analogs of fluoxetine, fenfluramine, and norfenfluramine” (Bioorg Med Chem, 2007)

Key:
Format in all cases: cell-based
Conditions in all cases: COS-7
[1] = biological target: 5-hydroxytryptamine receptor 1B (Homo sapiens) (UniProt P28222); assay: Inhibition of human 5HT1B expressed in COS7 cells at 10 uM
[2] = biological target: T1, 5-hydroxytryptamine receptor 1A (Homo sapiens) (UniProt P08908); assay: Inhibition of human 5HT1A expressed in COS7 cells at 10 uM
T1 sequence (whole entry): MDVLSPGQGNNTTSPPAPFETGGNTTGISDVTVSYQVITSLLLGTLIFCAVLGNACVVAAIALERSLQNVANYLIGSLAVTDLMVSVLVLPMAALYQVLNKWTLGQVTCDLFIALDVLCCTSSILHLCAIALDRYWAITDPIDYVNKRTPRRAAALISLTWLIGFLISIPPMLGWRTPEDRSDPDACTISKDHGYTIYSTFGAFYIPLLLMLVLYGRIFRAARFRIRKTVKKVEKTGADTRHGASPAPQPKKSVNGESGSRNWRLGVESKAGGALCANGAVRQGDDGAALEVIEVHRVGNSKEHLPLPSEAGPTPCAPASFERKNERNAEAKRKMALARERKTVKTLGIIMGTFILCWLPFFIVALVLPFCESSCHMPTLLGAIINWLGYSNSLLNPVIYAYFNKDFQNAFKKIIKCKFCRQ

[3] = biological target: T2, 5-hydroxytryptamine receptor 3A (Homo sapiens) (UniProt P46098); assay: Inhibition of human 5HT3 expressed in COS7 cells at 10 uM
T2 sequence (whole entry): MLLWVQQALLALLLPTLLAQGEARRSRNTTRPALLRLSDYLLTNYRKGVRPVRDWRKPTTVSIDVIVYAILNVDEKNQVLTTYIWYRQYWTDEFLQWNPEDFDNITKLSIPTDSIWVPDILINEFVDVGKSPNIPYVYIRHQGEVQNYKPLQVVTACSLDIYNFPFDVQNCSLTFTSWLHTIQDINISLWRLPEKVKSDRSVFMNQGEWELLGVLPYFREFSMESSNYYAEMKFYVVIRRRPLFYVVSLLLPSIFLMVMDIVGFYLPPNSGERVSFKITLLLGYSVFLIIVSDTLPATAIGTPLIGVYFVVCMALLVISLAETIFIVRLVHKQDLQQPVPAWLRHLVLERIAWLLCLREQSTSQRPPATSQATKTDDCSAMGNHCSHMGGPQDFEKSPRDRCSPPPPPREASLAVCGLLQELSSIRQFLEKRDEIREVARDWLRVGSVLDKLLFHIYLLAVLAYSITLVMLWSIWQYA

[4] = biological target: 5-hydroxytryptamine receptor 1D (Homo sapiens) (UniProt P28221); assay: Inhibition of human 5HT1D expressed in COS7 cells at 10 uM
Chain of 5-hydroxytryptamine receptor 1D (Homo sapiens) (P28221 whole entry): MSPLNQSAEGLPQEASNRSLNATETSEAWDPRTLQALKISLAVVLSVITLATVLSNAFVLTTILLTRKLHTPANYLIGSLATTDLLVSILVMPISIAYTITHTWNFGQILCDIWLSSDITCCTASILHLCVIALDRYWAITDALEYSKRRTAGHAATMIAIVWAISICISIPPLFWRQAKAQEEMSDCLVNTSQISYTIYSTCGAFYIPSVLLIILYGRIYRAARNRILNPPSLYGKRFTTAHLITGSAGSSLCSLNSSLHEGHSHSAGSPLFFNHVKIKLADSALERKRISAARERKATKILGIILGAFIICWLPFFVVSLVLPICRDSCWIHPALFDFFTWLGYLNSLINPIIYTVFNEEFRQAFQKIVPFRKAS

[5] = biological target: 5-hydroxytryptamine receptor 5A (Homo sapiens) (UniProt P47898); assay: Inhibition of human 5HT5A expressed in COS7 cells at 10 uM
Chain of 5-hydroxytryptamine receptor 5A (Homo sapiens) (P47898 whole entry): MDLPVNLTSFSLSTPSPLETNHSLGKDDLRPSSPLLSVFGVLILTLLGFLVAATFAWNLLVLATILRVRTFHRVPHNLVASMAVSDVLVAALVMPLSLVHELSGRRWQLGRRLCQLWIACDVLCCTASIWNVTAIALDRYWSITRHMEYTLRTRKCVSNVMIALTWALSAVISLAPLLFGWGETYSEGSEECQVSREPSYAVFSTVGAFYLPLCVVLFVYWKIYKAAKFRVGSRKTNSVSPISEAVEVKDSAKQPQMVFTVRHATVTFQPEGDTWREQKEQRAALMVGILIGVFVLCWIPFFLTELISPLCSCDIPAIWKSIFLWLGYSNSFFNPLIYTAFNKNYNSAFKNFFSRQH

[6] = biological target: 5-hydroxytryptamine receptor 6 (Homo sapiens) (UniProt P50406); assay: Inhibition of human 5HT6 expressed in COS7 cells at 10 uM
Chain of 5-hydroxytryptamine receptor 6 (Homo sapiens) (P50406 whole entry): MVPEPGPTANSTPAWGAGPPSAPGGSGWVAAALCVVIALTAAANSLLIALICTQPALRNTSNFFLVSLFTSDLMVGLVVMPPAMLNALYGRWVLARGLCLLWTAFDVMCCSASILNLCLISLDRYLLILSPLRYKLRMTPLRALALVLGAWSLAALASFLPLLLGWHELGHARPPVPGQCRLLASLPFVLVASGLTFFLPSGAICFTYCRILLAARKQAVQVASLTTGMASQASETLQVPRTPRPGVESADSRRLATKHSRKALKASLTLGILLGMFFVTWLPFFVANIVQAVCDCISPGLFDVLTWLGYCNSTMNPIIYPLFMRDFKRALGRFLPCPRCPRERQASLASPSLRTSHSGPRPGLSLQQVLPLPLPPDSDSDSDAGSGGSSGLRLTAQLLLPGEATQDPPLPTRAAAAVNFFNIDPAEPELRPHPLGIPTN

[7] = biological target: T3, 5-hydroxytryptamine receptor 2C (Rattus norvegicus) (UniProt P08909); assay: Inhibition of rat 5HT2C expressed in COS7 cells at 10 uM
T3 sequence (whole entry): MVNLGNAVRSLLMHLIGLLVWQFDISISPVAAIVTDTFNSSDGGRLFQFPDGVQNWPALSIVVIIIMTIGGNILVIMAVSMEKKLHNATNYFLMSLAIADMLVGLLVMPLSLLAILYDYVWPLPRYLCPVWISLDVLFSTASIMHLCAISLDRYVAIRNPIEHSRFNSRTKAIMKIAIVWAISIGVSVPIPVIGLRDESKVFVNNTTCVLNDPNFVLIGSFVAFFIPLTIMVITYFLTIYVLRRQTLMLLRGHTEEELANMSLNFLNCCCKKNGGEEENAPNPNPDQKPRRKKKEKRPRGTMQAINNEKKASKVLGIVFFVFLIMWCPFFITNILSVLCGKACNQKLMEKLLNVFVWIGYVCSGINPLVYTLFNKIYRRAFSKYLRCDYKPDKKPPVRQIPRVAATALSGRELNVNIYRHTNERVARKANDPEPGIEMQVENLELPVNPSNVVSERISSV

[8] = biological target: 5-hydroxytryptamine receptor 2A (Rattus norvegicus) (UniProt P14842); assay: Inhibition of rat 5HT2A expressed in COS7 cells at 10 uM
Chain of 5-hydroxytryptamine receptor 2A (Rattus norvegicus) (P14842 whole entry): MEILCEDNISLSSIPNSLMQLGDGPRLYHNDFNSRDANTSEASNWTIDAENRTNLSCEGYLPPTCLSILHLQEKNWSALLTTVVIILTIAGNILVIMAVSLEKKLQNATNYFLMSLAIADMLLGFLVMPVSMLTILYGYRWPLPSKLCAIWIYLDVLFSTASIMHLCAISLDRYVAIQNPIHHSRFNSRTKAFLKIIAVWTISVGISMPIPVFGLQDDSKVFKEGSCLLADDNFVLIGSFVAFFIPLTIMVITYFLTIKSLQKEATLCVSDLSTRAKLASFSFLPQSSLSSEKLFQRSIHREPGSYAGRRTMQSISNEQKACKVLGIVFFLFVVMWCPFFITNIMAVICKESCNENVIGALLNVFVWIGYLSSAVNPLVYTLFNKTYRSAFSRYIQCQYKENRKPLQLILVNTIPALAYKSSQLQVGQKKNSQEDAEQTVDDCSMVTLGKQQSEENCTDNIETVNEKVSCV

[9] = biological target: 5-hydroxytryptamine receptor 7 (Homo sapiens) (UniProt P34969); assay: Inhibition of human 5HT7 expressed in COS7 cells at 10 uM
Chain of 5-hydroxytryptamine receptor 7 (Homo sapiens) (P34969 whole entry): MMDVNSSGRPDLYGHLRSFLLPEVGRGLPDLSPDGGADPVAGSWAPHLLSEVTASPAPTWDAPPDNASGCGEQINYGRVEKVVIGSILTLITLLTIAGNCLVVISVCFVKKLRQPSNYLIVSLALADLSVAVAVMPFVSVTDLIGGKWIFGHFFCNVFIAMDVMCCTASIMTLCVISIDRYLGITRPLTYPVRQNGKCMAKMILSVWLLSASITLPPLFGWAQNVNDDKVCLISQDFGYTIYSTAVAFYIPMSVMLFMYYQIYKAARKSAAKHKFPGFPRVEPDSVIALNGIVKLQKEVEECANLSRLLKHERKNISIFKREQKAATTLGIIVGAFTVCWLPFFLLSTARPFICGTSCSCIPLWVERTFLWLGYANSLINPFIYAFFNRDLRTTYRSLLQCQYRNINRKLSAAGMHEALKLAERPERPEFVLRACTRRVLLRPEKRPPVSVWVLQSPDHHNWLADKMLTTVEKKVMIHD

[10] = biological target: 5-hydroxytryptamine receptor 2B (Homo sapiens) (UniProt P41595); assay: Inhibition of human 5HT2B expressed in COS7 cells at 10 uM
Chain of 5-hydroxytryptamine receptor 2B (Homo sapiens) (P41595 whole entry): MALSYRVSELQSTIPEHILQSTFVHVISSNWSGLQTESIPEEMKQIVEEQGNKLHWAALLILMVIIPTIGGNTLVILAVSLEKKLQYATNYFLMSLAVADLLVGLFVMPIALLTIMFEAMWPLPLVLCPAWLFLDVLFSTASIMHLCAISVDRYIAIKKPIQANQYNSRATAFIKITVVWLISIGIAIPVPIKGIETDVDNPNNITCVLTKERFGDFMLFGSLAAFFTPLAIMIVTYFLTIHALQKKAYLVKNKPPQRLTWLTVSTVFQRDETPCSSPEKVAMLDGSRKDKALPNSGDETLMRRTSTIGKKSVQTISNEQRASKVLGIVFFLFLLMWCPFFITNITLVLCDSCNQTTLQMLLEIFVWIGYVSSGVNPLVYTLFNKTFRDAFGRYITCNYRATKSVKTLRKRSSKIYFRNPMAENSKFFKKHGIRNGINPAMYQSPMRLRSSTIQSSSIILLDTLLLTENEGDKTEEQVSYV

[11] = biological target: 5-hydroxytryptamine receptor 1E (Homo sapiens) (UniProt P28566); assay: Inhibition of human 5HT1E expressed in COS7 cells at 10 uM
Chain of 5-hydroxytryptamine receptor 1E (Homo sapiens) (P28566 whole entry): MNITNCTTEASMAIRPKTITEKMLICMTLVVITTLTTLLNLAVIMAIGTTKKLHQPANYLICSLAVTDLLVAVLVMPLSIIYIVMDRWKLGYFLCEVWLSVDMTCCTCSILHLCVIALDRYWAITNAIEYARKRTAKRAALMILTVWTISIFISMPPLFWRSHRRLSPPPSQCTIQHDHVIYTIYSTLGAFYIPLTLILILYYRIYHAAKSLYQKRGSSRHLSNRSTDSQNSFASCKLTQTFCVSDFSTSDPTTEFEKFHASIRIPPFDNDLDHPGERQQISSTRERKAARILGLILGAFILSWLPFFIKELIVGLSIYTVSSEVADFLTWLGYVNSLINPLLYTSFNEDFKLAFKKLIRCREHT

Chain of 5-hydroxytryptamine receptor 1B (Homo sapiens) (P28222 whole entry): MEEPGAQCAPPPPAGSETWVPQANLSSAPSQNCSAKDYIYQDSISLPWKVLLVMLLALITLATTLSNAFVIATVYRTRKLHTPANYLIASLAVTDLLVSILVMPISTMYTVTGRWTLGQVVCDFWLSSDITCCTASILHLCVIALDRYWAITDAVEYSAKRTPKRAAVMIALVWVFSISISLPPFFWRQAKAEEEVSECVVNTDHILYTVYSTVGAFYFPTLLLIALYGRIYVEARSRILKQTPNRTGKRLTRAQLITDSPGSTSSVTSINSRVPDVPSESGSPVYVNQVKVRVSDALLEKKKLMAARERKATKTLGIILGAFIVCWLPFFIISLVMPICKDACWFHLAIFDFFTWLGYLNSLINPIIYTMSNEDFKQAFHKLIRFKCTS

CNCCC(Oc1ccc(S(F)(F)(F)(F)F)cc1)c1ccccc1 (stereo not drawn)
inhibition [1]: 3.4% | inhibition [2]: -3% | inhibition [3]: 6.8% | inhibition [4]: 12.7% | inhibition [5]: 25% | inhibition [6]: 1.5% | inhibition [7]: 75.8% | inhibition [8]: 97.3% | inhibition [9]: 12% | inhibition [10]: 71.9% | inhibition [11]: 77.8%

CC(N)Cc1cccc(S(F)(F)(F)(F)F)c1 (stereo not drawn)
inhibition [1]: 62.9% | inhibition [2]: 50% | inhibition [3]: -6.1% | inhibition [4]: 73.7% | inhibition [5]: 31.3% | inhibition [6]: 50% | inhibition [7]: 94.6% | inhibition [8]: 85.9% | inhibition [9]: 50% | inhibition [10]: 89.6% | inhibition [11]: 23.4%

CCNC(C)Cc1cccc(S(F)(F)(F)(F)F)c1 (stereo not drawn)
inhibition [1]: 63.5% | inhibition [2]: 85.5% | inhibition [3]: 14.6% | inhibition [4]: 15.2% | inhibition [5]: 62.7% | inhibition [6]: 50% | inhibition [7]: 72.8% | inhibition [8]: 53.2% | inhibition [9]: 50% | inhibition [10]: 85.3% | inhibition [11]: 7.3%
